# Experiments:
# [1] = tested on: other breast cancer cell lines and other types of cancer cell lines; test: Focus formation (clonogenic) assay; format: cell-based; conditions: 10 μM
# Description: Figure 5 A41 decreases growth and invasiveness of TNBC cells in vitro (A) Representative images of RAC-GTP levels (red) in MDA-MB-468 Luc cells in the absence (CTL) and presence of EHT1864, NSC23766, or A41 (1 h at 10 μM) (left). Luciferase (Luc, green) was used to detect the cells. RAC-GTP mean fluorescence intensity was quantified inside the cell area (right) (n = 31–37 cells from 3 independent experiments; ∗p < 0.05, ∗∗∗p < 0.001) (scale bars: 10 μm). […] (C) Quantification of colony number of indicated cancer cell lines in the presence of A41 (10 μM) expressed as the percentage of control in the absence of A41. Results shown are representative of N > 3 independent experiments. (D) Immunoblot analysis and corresponding quantification of AKT and P44/42 expression and phosphorylation (pAKT, p44/42) in MDA-MB-468 Luc cells in the absence (−) and presence of NSC23766 or A41 (1 h at 10^−5 M). Results shown are representative of 3 independent experiments. ∗∗p < 0.01 vs. untreated cells, ^###p < 0.001 vs. NSC23766-treated cells. (E) 3D invasion assay of MDA-MB-468 Luc and cancer-associated fibroblasts (CAFs) and corresponding quantification (scale bars: 200 μm). […]
# 1000 cells/well from the indicated cancer cell lines were seeded in 6-wells plates and allowed to grow 2 days before treatments. […] The area occupied by the cells was then quantified with ImageJ software. […]
# [2] = Ames fluctuation test (1st group); format: cell-based
# Excerpt: Data S3. Ames-fluctuation assay-A41.
# Test Concentration Count Positive Significance Fisher Exact Test
# (# of wells) (- to +++) (p-value)
# Ames fluctuation test (TA100 + S9
# CHO = test: Micronucleus assay (HCA); format: cell-based
# Excerpt: Data S4. Micronucleus assay-A41.
# Test Scored % Cytotox % Cytotox % Micronucleated t-Test Test
# Concentr. Cells Index CBPI NumbersCell Cells p-value Result […]
# Micronucleus (CHO - S9, HCA)
# [3] = biological target: Peptidase, Angiotensin Converting Enzyme (Oryctolagus cuniculus, UniProt P12822); test: Safety screen; format: biochemical, rabbit
# Description: (§1) Blood cell counts, kinase profiler, safety screen, bacterial cytotoxicity, Ames, micronucleus assays were performed by the company Eurofins (France).
# Cannabinoid CB2 = Cannabinoid CB2 (Homo sapiens, UniProt P34972); test: Safety screen; format: binding
# Description: as §1
# Potassium Channel hERG = Potassium Channel hERG (Homo sapiens, UniProt Q12809); test: Safety screen; format: binding
# Description: (§2) Blood cell counts, kinase profiler, safety screen, bacterial cytotoxicity, Ames, micronucleus assays were performed by the company Eurofins (France). The kinase profiler was performed by the company Eurofins (Discovery, Panlab and Cerep).
# Abl (H396P) (h) = Abl (H396P) (h) (Homo sapiens, UniProt P00519, H396P); test: Kinase Profiler; format: biochemical
# Description: (§3) The kinase profiler was performed by the company Eurofins (Discovery, Panlab and Cerep).
# ALK4(h) = ALK4(h) (Homo sapiens, UniProt P36896); test: Kinase Profiler; format: biochemical
# Description: as §3
# CaMKK1(h) = CaMKK1(h) (Homo sapiens, UniProt Q8N5S9); test: Kinase Profiler; format: biochemical
# Description: as §3
# EphB2(h) = EphB2(h) (Homo sapiens, UniProt P29323); test: Kinase Profiler; format: biochemical
# Description: as §2
# EphB3(h) = EphB3(h) (Homo sapiens, UniProt P54753); test: Kinase Profiler; format: biochemical
# Description: as §2
# Flt3(h) = Flt3(h) (Homo sapiens, UniProt P36888); test: Kinase Profiler; format: biochemical
# Description: as §3
# GRK1(h) = GRK1(h) (Homo sapiens, UniProt Q15835); test: Kinase Profiler; format: biochemical
# Description: as §2
# IR(h), activated = IR(h), activated (Homo sapiens, UniProt P06213); test: Kinase Profiler; format: biochemical
# Description: as §2
# MEKK2(h) = MEKK2(h) (Homo sapiens, UniProt Q9Y2U5); test: Kinase Profiler; format: biochemical
# Description: as §3
# NEK9(h) = NEK9(h) (Homo sapiens, UniProt Q8TD19); test: Kinase Profiler; format: biochemical
# Description: as §3
# PDHK4(h) = PDHK4(h) (Homo sapiens, UniProt Q16654); test: Kinase Profiler; format: biochemical
# Description: as §2
# PKCμ(h) = PKCμ(h) (Homo sapiens, UniProt Q15139); test: Kinase Profiler; format: biochemical
# Description: as §3
# SIK3(h) = SIK3(h) (Homo sapiens, UniProt Q9Y2K2); test: Kinase Profiler; format: biochemical
# Description: as §3
# Tie2 (h) = Tie2 (h) (Homo sapiens, UniProt Q02763); test: Kinase Profiler; format: biochemical
# Description: as §2
# Wee1(h) = Wee1(h) (Homo sapiens, UniProt P30291); test: Kinase Profiler; format: biochemical
# Description: as §3
# [4] = biological target: PI3K (p110a(E542K)/p85a)(m) (Mus musculus, UniProt P42337, E542K); test: Kinase Profiler; format: biochemical
# Description: as §3
# PI3KC2g(h) = PI3KC2g(h) (Homo sapiens, UniProt O75747); test: Kinase Profiler; format: biochemical
# Description: as §3
# CDK13/cyclinK(h) = CDK13/cyclinK(h) (Homo sapiens, UniProt Q14004)
# Chain of CDK13/cyclinK(h) (Q14004 whole entry): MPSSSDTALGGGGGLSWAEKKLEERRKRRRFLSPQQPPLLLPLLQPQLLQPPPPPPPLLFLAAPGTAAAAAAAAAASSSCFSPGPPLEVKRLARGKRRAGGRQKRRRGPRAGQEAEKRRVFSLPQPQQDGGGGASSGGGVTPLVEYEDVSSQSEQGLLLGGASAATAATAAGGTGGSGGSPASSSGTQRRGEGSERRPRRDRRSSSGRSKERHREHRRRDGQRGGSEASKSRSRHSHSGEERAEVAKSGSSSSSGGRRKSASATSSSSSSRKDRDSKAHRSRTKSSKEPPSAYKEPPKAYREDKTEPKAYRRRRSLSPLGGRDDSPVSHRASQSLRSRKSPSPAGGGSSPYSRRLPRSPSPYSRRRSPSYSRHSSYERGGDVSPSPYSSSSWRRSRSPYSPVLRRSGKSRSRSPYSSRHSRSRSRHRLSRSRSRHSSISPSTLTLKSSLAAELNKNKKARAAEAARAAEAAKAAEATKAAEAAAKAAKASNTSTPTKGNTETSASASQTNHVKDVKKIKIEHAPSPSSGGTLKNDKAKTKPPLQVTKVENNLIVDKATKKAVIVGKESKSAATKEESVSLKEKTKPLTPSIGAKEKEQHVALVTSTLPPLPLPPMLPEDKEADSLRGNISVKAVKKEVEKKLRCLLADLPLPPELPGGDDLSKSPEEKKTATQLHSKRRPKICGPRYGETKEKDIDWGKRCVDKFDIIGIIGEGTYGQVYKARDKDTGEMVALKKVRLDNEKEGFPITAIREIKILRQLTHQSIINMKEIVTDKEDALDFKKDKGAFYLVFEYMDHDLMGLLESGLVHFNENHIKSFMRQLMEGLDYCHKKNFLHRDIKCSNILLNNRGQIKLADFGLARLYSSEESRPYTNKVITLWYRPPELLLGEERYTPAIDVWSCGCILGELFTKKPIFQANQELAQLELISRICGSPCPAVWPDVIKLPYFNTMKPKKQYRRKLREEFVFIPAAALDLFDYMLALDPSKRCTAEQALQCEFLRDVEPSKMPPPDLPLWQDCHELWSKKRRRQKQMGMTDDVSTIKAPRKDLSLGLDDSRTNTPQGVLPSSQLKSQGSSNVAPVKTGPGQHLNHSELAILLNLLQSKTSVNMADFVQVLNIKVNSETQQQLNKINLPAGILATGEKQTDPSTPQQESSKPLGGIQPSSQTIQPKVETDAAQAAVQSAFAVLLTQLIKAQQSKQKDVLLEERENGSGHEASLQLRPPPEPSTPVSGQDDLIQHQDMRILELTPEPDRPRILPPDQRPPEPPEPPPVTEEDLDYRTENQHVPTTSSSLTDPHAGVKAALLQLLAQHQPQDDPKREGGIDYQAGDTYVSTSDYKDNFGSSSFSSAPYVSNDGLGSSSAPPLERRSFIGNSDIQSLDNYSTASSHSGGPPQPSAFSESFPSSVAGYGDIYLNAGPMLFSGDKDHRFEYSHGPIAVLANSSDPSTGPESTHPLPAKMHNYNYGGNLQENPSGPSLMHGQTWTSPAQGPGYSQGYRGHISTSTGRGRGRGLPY
# Chain of CDK13/cyclinK(h) (O75909 whole entry partner): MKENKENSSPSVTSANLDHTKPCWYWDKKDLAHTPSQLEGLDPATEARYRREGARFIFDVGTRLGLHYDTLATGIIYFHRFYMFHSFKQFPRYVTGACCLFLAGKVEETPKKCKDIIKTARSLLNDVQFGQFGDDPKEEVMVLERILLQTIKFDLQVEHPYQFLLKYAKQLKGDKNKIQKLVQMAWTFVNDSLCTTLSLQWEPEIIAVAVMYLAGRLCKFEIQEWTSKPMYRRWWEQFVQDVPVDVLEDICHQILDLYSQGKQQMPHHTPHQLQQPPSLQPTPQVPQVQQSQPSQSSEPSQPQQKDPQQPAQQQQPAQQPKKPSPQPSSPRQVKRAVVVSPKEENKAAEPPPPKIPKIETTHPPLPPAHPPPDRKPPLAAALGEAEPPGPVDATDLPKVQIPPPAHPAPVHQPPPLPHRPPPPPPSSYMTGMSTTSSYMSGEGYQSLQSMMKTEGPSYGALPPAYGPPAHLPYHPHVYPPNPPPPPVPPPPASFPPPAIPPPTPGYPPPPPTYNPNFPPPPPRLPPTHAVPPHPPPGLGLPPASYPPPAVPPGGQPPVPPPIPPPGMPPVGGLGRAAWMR
# Description: as §2
# Chain of Wee1(h) (P30291 whole entry): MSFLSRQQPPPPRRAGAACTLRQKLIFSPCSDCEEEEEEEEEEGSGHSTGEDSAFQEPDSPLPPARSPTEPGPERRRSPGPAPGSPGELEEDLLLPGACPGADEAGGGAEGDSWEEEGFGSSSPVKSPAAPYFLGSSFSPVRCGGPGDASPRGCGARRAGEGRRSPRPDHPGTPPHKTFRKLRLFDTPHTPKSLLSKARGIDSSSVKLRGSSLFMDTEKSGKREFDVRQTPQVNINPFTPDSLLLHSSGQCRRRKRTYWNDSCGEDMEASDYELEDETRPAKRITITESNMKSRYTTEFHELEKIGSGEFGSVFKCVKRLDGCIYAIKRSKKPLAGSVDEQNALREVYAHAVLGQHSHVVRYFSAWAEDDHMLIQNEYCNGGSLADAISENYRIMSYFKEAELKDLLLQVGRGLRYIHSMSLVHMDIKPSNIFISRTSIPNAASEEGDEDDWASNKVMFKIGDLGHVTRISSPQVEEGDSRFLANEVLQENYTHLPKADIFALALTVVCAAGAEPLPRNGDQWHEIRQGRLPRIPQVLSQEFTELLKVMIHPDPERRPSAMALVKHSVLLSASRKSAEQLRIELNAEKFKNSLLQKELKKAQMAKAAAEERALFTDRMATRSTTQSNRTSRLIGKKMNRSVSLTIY
# Chain of Cannabinoid CB2 (P34972 whole entry): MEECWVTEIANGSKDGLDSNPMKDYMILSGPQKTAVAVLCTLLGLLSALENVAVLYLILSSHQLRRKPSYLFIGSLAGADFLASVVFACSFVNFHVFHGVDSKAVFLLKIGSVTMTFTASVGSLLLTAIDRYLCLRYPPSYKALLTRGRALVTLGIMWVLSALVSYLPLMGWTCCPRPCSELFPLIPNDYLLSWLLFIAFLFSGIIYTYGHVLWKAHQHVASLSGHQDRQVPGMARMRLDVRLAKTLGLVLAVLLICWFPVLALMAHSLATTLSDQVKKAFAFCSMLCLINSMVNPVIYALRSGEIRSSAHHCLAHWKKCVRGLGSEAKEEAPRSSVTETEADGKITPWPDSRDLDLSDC
# Chain of EphB2(h) (P29323 19-1055): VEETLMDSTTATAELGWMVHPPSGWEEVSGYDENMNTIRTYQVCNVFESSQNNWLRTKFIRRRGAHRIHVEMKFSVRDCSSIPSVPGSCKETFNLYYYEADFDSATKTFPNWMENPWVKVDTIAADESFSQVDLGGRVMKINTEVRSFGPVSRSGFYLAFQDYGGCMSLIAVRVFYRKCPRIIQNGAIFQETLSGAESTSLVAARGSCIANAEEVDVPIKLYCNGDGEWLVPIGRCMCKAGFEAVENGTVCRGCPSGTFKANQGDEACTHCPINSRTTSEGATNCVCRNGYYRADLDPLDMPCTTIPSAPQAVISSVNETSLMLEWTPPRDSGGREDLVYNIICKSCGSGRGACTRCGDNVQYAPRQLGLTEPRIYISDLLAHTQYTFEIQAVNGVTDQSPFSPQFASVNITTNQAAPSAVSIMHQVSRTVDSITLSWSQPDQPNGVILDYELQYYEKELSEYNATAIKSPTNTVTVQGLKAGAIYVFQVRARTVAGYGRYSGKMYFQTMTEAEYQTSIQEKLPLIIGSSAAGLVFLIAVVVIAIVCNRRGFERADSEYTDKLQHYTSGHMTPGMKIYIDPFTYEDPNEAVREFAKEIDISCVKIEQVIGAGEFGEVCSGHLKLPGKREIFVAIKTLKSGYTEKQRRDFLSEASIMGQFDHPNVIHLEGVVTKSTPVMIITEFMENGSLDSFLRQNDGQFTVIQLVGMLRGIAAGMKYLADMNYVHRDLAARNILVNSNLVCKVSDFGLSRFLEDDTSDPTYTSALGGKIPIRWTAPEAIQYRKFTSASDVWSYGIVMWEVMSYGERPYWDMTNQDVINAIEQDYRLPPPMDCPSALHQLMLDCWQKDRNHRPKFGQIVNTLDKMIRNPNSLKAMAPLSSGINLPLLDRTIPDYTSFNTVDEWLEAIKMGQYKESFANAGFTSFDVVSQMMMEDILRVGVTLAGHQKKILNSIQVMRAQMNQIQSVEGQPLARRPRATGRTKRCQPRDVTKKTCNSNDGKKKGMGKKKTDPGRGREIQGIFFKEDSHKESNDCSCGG
# Chain of CaMKK1(h) (Q8N5S9 whole entry): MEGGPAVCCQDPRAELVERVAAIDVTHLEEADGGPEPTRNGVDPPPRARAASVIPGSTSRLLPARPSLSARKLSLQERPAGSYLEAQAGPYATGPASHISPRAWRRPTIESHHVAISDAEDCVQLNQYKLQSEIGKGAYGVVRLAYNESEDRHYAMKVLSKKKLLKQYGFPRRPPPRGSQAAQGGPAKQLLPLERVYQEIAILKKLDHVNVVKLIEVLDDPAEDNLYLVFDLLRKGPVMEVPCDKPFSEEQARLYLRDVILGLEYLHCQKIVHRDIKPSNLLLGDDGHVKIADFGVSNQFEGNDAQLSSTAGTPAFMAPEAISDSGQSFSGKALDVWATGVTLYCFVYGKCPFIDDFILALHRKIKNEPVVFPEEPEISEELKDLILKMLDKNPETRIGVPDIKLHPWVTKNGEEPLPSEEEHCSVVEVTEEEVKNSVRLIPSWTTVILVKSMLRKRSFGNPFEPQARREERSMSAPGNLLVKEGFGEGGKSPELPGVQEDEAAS
# Chain of PDHK4(h) (Q16654 whole entry): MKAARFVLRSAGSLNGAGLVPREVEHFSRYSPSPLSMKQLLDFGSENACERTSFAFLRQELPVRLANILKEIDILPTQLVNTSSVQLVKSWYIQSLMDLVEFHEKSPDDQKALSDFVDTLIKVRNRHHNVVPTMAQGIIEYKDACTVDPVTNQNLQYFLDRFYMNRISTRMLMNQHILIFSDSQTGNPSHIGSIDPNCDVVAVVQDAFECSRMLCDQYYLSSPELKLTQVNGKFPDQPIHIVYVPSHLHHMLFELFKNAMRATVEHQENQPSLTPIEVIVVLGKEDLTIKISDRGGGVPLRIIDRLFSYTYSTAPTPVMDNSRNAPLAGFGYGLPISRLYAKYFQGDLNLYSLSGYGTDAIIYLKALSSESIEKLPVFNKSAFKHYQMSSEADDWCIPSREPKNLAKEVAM
smiles,measurement,setting,value
COc1ccc(OC)c(NS(=O)(=O)c2ccc(NC(=O)CCSc3ccc(C)cc3)cc2)c1 [Compound A41],colony formation,[1],Inhibitory effect
same,Count Positive (# of wells),[2]; 1.0E-04 M,1
same,Count Positive (# of wells),[2]; 1.0E-05 M,2
same,Count Positive (# of wells),[2]; 5.0E-05 M,0
same,Count Positive (# of wells),[2]; 5.0E-06 M,0
same,% Cytotox Cell Numbers,"CHO; - S9, 1.3E-04 M",64.6%
same,% Cytotox Index CBPI,"CHO; - S9, 1.3E-04 M",72.8%
same,% Micronucleated Cells,"CHO; - S9, 1.3E-04 M",13.39%
same,% Cytotox Cell Numbers,"CHO; - S9, 1.6E-05 M",26.4%
same,% Cytotox Index CBPI,"CHO; - S9, 1.6E-05 M",-23.9%
same,% Micronucleated Cells,"CHO; - S9, 1.6E-05 M",2.04%
same,% Cytotox Cell Numbers,"CHO; - S9, 2.5E-04 M",73.6%
same,% Cytotox Index CBPI,"CHO; - S9, 2.5E-04 M",73.8%
same,% Micronucleated Cells,"CHO; - S9, 2.5E-04 M",14.40%
same,% Cytotox Cell Numbers,"CHO; - S9, 3.1E-05 M",42.0%
same,% Cytotox Index CBPI,"CHO; - S9, 3.1E-05 M",8.1%
same,% Micronucleated Cells,"CHO; - S9, 3.1E-05 M",3.12%
same,% Cytotox Cell Numbers,"CHO; - S9, 6.3E-05 M",52.5%
same,% Cytotox Index CBPI,"CHO; - S9, 6.3E-05 M",65.8%
same,% Micronucleated Cells,"CHO; - S9, 6.3E-05 M",6.96%
same,% Cytotox Cell Numbers,"CHO; - S9, 7.8E-06 M",14.3%
same,% Cytotox Index CBPI,"CHO; - S9, 7.8E-06 M",-21.4%
same,% Micronucleated Cells,"CHO; - S9, 7.8E-06 M",1.13%
same,% inh.,[3],11%
same,% inh.,Cannabinoid CB2,36%
same,% inh.,Potassium Channel hERG,22%
same,Activity(%),Abl (H396P) (h),92%
same,Activity(%),ALK4(h),101%
same,Activity(%),CaMKK1(h),95%
same,Activity(%),EphB2(h),97%
same,Activity(%),EphB3(h),113%
same,Activity(%),Flt3(h),98%
same,Activity(%),GRK1(h),103%
same,Activity(%),"IR(h), activated",104%
same,Activity(%),MEKK2(h),102%
same,Activity(%),NEK9(h),107%
same,Activity(%),PDHK4(h),93%
same,Activity(%),PKCμ(h),104%
same,Activity(%),SIK3(h),106%
same,Activity(%),Tie2 (h),110%
same,Activity(%),Wee1(h),112%
same,Activity(%),[4],99%
same,Activity(%),PI3KC2g(h),114%
same,Activity(%),CDK13/cyclinK(h),97%
